Measurements published in PubChem BioAssay (NCI).
“And” between values parts separate entries of the source, which are not always exact repeats. Equal values may be shown once.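 Where inhibition never reached the appropriate level, the endpoint shown equals the highest concentration tested. Otherwise, values were interpolated linearly from a five-concentration, 48-hour dose response in 96-well plates. Abbreviation: GI50, concentration required for 50% inhibition of growth. At the TGI there is no net growth.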

Key:
Test in all cases: NCI tumour cell line growth inhibition, 48 h
DLD-1 colon = test system: DLD-1 colon
DMS 114 small cell lung = test system: DMS 114 small cell lung
KM20L2 colon = test system: KM20L2 colon
M19-MEL melanoma = test system: M19-MEL melanoma
SNB-78 CNS = test system: SNB-78 CNS
XF 498 CNS = test system: XF 498 CNS
BT-549 breast = test system: BT-549 breast
NCI/ADR-RES ovarian = test system: NCI/ADR-RES ovarian

SMILES	TGI (DLD-1 colon) [µM]	TGI (DMS 114 small cell lung) [µM]	TGI (KM20L2 colon) [µM]	TGI (M19-MEL melanoma) [µM]	TGI (SNB-78 CNS) [µM]	TGI (XF 498 CNS) [µM]	GI50 (BT-549 breast)	TGI (BT-549 breast)	GI50 (NCI/ADR-RES ovarian)	TGI (NCI/ADR-RES ovarian)
CCCCOC(=O)NC(=O)c1cn(C2CCCCC2)c(=O)[nH]c1=O	> 100	> 100	> 100	> 100	> 100	> 100	–	–	–	–
N#CCC(=O)NC1C2CC3CC(C2)CC1C3 (stereo not given)	48.9	30.5	33.6	> 100	43	–	–	–	–	–
Cc1ccc(C(=O)Nc2ccc(CN3CCN(C)CC3)c(C(F)(F)F)c2)cc1C#Cc1cnc(N)c2ccccc12	–	–	–	–	–	–	1.93 µM	8.71 µM	0.594 µM	1.82 µM
CC(C)c1cc2c(O)c(c1)Cc1cc(C(C)C)cc(c1O)Cc1cc(C(C)C)cc(c1O)Cc1cc(C(C)C)cc(c1O)C2	> 100	> 100	> 100	> 100	> 100	> 100	–	–	–	–
CCCCCN(CCCCC)CC(O)c1ccc(Cl)c2ccccc12 (stereo not given)	–	–	–	–	–	–	16.3 µM	33.7 µM	11.1 µM	24.8 µM
COC(=O)C(=Cc1cc(OC)c(OC)c(OC)c1-c1cc2c(cc1C(C)=O)OCO2)C(=O)OC	53.7	99.4	62.8	75	–	59.7	–	–	–	–
C=C1CC[C@@H]2[C@](C)(COC(C)=O)[C@H](OC(C)=O)CC[C@@]2(C)[C@@H]1CC(Nc1ccc(S(=O)(=O)Nc2ncccn2)cc1)C1=CCOC1=O (stereo not given in full)	–	–	–	–	–	–	1.64 µM	3.39 µM	1.83 µM	5.28 µM
Fc1ccc(-c2nn3ncccc3c2-c2ccnc(Nc3ccc4c(c3)OCCO4)n2)cc1	–	–	–	–	–	–	7.87 µM	24.9 µM	5.73 µM	> 25 µM
Nc1nc(-c2cccc(Cl)c2)c(-c2ccc3ncccc3n2)s1	–	–	–	–	–	–	> 25 µM	> 25 µM	> 25 µM	> 25 µM
COC(=O)c1cc(C)c(C)c2c1NC(=O)CNC2=O	> 100	> 100	> 100	> 100	> 100	> 100	–	–	–	–
NCCCn1c2c(c3ccc([N+](=O)[O-])cc3c1=O)C(=O)c1cc(Br)ccc1-2	–	–	–	–	–	–	0.0314 µM and 0.0491 µM	0.893 µM	0.0352 µM	0.203 µM and 0.206 µM
C=C[C@H]1C[C@@H]2C[C@@H]3[C@H]4C/C=C\C(=O)NCCCC5NC(=O)C(=C(O)/C=C/[C@@H]4CC(=O)[C@H]3[C@@H]2[C@H]1C)C5=O (stereo not given in full)	–	–	–	–	–	–	0.158 µM	0.322 µM	0.192 µM	0.365 µM
CO[C@H]1C=C[C@@]23c4cc5c(cc4CO[C@]2(O)CN(C)[C@H]3C1)OCO5	–	–	–	–	–	–	–	> 100 µM	–	> 100 µM
C=C(C)C1CCC2(C(=O)O)CCC3(C)C(CCC4C5(C)CCC(OC(=O)NCc6ccccc6)C(C)(C)C5CCC43C)C12 (stereo not given)	–	–	–	–	–	–	4.05 µM	33.3 µM	3.82 µM	> 100 µM
COc1ccc(-c2nnc(COc3ccc(NC(=O)Nc4ccc(Cl)c(C(F)(F)F)c4)cc3F)o2)cc1	–	–	–	–	–	–	–	–	3.28 µM	> 100 µM
CC(C)(C)c1cc(NC(=O)Cc2ccc(-c3cnc4cc(-c5cnn(CCN6CCOCC6)c5)ccc4n3)cc2)no1	–	–	–	–	–	–	–	39.5 µM and > 100 µM and > 3 µM	1.08 µM and 0.745 µM and 0.117 µM	50 µM and > 100 µM and > 3 µM
Cn1cnc([N+](=O)[O-])c1[Se]c1nc(N)nc2c1ncn2C1OC(CO)C(O)C1O (stereo not given)	–	–	–	–	–	–	–	> 100 µM	–	> 100 µM
COc1ccccc1Cn1cc2c(c1-c1ccccc1)CCc1cnoc1-2	–	–	–	–	–	–	–	–	0.848 µM	4.47 µM

SMILES	TGI (DLD-1 colon) [µM]	TGI (DMS 114 small cell lung) [µM]	TGI (KM20L2 colon) [µM]	TGI (M19-MEL melanoma) [µM]	TGI (SNB-78 CNS) [µM]	TGI (XF 498 CNS) [µM]	GI50 (BT-549 breast)	TGI (BT-549 breast)	GI50 (NCI/ADR-RES ovarian)	TGI (NCI/ADR-RES ovarian)
Cc1ccc(NC(=O)c2sc3nc(C)c(C(O)c4ccccc4)cc3c2N)cc1 (stereo not given)	–	–	–	–	–	–	1.15 µM	33.7 µM	0.39 µM	18.9 µM
COC(=O)c1c(C)[nH]c(/C=C2\N=C(c3ccc[nH]3)C=C2OC)c1C	–	–	–	–	–	–	0.199 µM	3.04 µM	0.109 µM	4.6 µM
O=C(O)[C@@H]1CCCCN1Cc1cc2cc3c(cc2c2cc(OCc4ccccc4)ccc12)OCO3	–	–	–	–	–	–	2.97 µM	8.88 µM	19.3 µM	39.6 µM
CC(C)(C)c1ccc(O)c(CN(Cc2cc(C(C)(C)C)ccc2O)c2ccccc2)c1	–	–	–	–	–	–	–	36.4 µM	–	37.6 µM
COc1ccc2nc3cc(Cl)ccc3c(NCCN)c2c1	–	–	–	–	–	–	1.81 µM	3.39 µM	–	–
COc1cccc(N2C(=O)[C@H]3CC(C)c4c([nH]c5ccccc45)[C@H]3C2=O)c1 (stereo not given in full)	> 100	–	> 100	> 100	> 100	> 100	–	–	–	–
COC(=O)C(=O)C(C(=O)C=C(C)C)C(=O)C(=O)Nc1ccc(C)cc1C (stereo not given)	> 100	> 100	> 100	> 100	> 100	> 100	–	–	–	–
CC(C)CCCC(=O)CCCCCCC(=O)CCN(O)C(=O)C(N)CO (stereo not given)	–	–	–	–	–	–	–	34.5 µM	–	38.4 µM
CC1(C)N=C(N)N=C(N)N1c1ccc(OCc2ccc(S(=O)(=O)F)c(Cl)c2)c(Cl)c1	–	–	–	–	–	–	18.9 µM	> 100 µM	60 µM	> 100 µM
CON(C)C(=O)N1N=C(c2cc(F)ccc2F)SC1(CCCN)c1ccccc1 (stereo not given)	–	–	–	–	–	–	0.302 µM	17.5 µM	0.544 µM and 0.122 µM	5.34 µM and 2.87 µM
CSc1nc2cc(S(=O)(=O)N3CCCCC3)ccc2s1	–	–	–	–	–	–	–	> 100 µM	–	> 100 µM
Cn1c2ccccc2c2c3[nH]c(=O)[nH]c(=O)c3c3c4ccccc4n(C)c3c21	–	–	–	–	–	–	2.83 µM	18.7 µM	2.89 µM	17 µM
CC[C@H](C)[C@H]1O[C@]2(C=C[C@@H]1C)C[C@@H]1C[C@@H](C/C=C(\C)[C@@H](O[C@H]3C[C@H](OC)[C@@H](O[C@H]4C[C@H](OC)[C@@H](NC)[C@H](C)O4)[C@H](C)O3)[C@@H](C)/C=C/C=C3\CO[C@@H]4[C@H](O)C(C)=C[C@@H](C(=O)O1)[C@]34O)O2	–	–	–	–	–	–	4.13 µM	15.1 µM	3.05 µM	11.3 µM
C/C(=N\Nc1ccc(Cl)cn1)c1ccccn1	–	–	–	–	–	–	0.362 µM	> 76 µM	0.037 µM	> 31.6 µM
COC(C(O)c1ccc2c(c1)OCO2)P(=O)(c1ccccc1)c1ccccc1 (stereo not given)	> 100	> 100	–	> 100	> 100	> 100	–	–	–	–
Cc1ccc2c3c(c(=O)[nH]c2c1)C1(C(C#N)=C(N)O3)c2cc(Br)ccc2-c2ccc(Br)cc21	–	–	–	–	–	–	3.93 µM	19.8 µM	6.82 µM	> 100 µM
COC(=O)C12C3C4C1C1C2C3C41NC(=O)c1csc([C@@H](C[C@H](C(C)C)N(C)C(=O)[C@@H](NC(=O)[C@H]2CCCCN2C)C2CC2)OC(C)=O)n1 (stereo not given in full)	–	–	–	–	–	–	< 0.00333 µM	4.1 µM	2.7 µM	> 33.3 µM
